Legend:
HIV-1 strain NL4-3 = assay: HIV assay; assay type: cell-based; settings: compared to solvent; for inhibition of HIV infection: 30 μM, HeLa TZM cells; for inhibition at 30 µM: Human immunodeficiency virus 1, NL43, HeLa TZM cells, read-out: inhibition of HIV infection
Raft liposomes = assay: Disrafter-Liposome Raftophile Assay (D-LRA); settings: for disrafting activity in the DLRA (in words): significance above 25% or below −25%; for % disrafting in the DLRA with perylene: indicator perylene 2 μM; for % disrafting in the DLRA with perylene / % disrafting in the DLRA with GS-96: test compound 100 μM final, negative = raft augmentation; for % disrafting in the DLRA: indicator not stated; for % disrafting in the DLRA with GS-96: indicator GS-96 0.2 μM
Wild type SV40 viruses = assay: SV40 infection assay; assay type: cell-based, Simian Virus 40; settings: HeLa cells
[1] = test system: vesicular stomatitis virus (VSV); assay type: cell-based
PR8 virus = assay: microbe, parasite or virus in culture; assay type: cell-based, influenza virus
Influenza virus = assay: Virus budding assay (influenza assay); assay type: cell-based; settings: MDCK cells; test compound 1 h; below 100% = inhibition
[2] = test system: Rat basophilic leukemia (RBL-2H3) cells; assay: Degranulation assay (β-hexosaminidase release); assay type: cell-based; settings: 100 μM, compared to solvent vehicle
Description: The assay measures release of β-hexosaminidase as a marker of release of various preformed pharmacological agents in response to clustering of the high affinity IgE receptor (FcεRI) by means of multivalent antigen-IgE complexes. Rat basophilic leukemia (RBL-2H3) cells, a commonly used model of mast cell degranulation, are sensitized with anti-DNP specific IgE and challenged with multivalent DNP-BSA. The release of β-hexosaminidase into the supernatant is measured by enzymatic conversion of the fluorogenic substrate 4-methylumbelliferyl-N-acetyl-[…] to N-acetyl-β-D-glucosamine and highly fluorescent methylumbelliferone and quantified by fluorescence detection in a Tecan Safire™ plate reader. • 2. Materials […]
Two to 24 hours before incubation with test compounds the medium was removed and cells were sensitized with 0.4 μg/ml anti-DNP IgE in fresh medium. […] Hexosaminidase activity in supernatants and lysates was measured by incubating 25 μl aliquots with 100 μl MUG substrate solution in a 96-well plate at 37° C. for 30 min. […] Fluorescence was measured in a Tecan Safire™ plate reader at 365 nm excitation and 440 nm emission settings.
Each compound is tested in duplicates in at least three independent experiments. β-hexosaminidase release is calculated after subtraction of unspecific release (release without addition of antigen) using the formula: […]

[3] = Betapolyomavirus macacae, M-HeLa, 30 μM, compared to solvent
[4] = unidentified influenza virus, PR8, MDCK, read-out: inhibition of PR8 virus replication

Row | Compound | disrafting activity in the DLRA (in words) (Raft liposomes) | inhibitory effect on viral infection in the VSV counterscreen (in words) [1] | % disrafting in the DLRA with perylene (Raft liposomes) | % disrafting in the DLRA with GS-96 (Raft liposomes) | other results
1 | CCCCCCCCCCCC=C1CC[C@H]2[C@@H]3CCC4CC(=O)CC[C@]4(C)[C@H]3CC[C@]12C (relative stereo) [Compound 10ak, cis-Δ^17(20)-Dodecylidene-3-androstanone] | high negative or positive values | – | – | – | inhibition of HIV infection (HIV-1 strain NL4-3): 23%
2 | C/C=C1/CC[C@H]2[C@@H]3CCc4cc(OC(C)=O)ccc4[C@H]3CC[C@]12C (relative stereo) [Compound 10db, cis-Δ^17(20)-19-Norpregna-1,3,5(10),17(20)-tetraen-3-yl acetate] | high negative or positive values | no inhibitory effect on viral infection at all | −536% | – | inhibition of SV40 infection (Wild type SV40 viruses; 30 μM, compared to solvent): 52.2%; inhibition of HIV infection (HIV-1 strain NL4-3): 27%
3 | C[C@]12CC[C@@H](O)C[C@@H]1CC[C@@H]1[C@@H]2CC[C@]2(C)C(=O)CC[C@@H]12 [Androsterone, reference compound] | do not show significant disrafting activity | – | – | – | % disrafting in the DLRA (Raft liposomes): 0%
4 | CO[C@@H]1CC[C@@]2(C)[C@@H](CC[C@H]3[C@@H]4CCC[C@@]4(C)CC[C@@H]32)C1 [Compound 10ac, 3alpha-Methoxy-5alpha-androstane] | high negative or positive values | no inhibitory effect on viral infection at all | about +68% | – | inhibition at 30 µM (Wild type SV40 viruses; [3]): 12.9%
5 | C/C=C1/CCC2C3CCC4C[C@@H](O)CC[C@]4(C)C3CC[C@]12C (stereo partly drawn) [Compound 10ad, cis-Δ^17(20)-5alpha-Pregnen-3beta-ol] | high negative or positive values | no inhibitory effect on viral infection at all | about −105% | about −66% | inhibition at 20 µM (PR8 virus; [4]): 59.6%; inhibition at 30 µM (Wild type SV40 viruses; [3]): 15.2%; virus budding, percentage with respect to an untreated control (Influenza virus): 61%
6 | C/C=C1/CCC2C3CCC4CC(=O)CC[C@]4(C)C3CC[C@]12C (stereo partly drawn) [Compound 10ae, cis-Δ^17(20)-5alpha-Pregnen-3-one] | high negative or positive values | – | about −43% | ~−20% | inhibition at 50 µM (PR8 virus; [4]): 32.9%; virus budding, percentage with respect to an untreated control (Influenza virus): about 140%
7 | CC[C@H]1CC[C@H]2[C@@H]3CC[C@H]4C[C@@H](O)CC[C@]4(C)[C@H]3CC[C@]12C [Compound 10af, 5alpha-Pregnan-3beta-ol] | high negative or positive values | no inhibitory effect on viral infection at all | −217% | −74.7% | inhibition at 50 µM (PR8 virus; [4]): 27.9%; inhibition at 30 µM (Wild type SV40 viruses; [3]): 18.9%
8 | CC[C@H]1CCC2C3CCC4C[C@H](N=[N+]=[N-])CC[C@]4(C)C3CC[C@@]21C (stereo partly drawn) [Compound 10ag, 5alpha-Pregnan-3alpha-azide] | high negative or positive values | – | −71.8% | −187% | –
9 | C/C=C1/CCC2C3CCc4cc(O)ccc4C3CC[C@]12C (stereo partly drawn) [Compound 10da, cis-Δ^17(20)-19-Norpregna-1,3,5(10),17(20)-tetraen-3-ol] | high negative or positive values | no inhibitory effect on viral infection at all | −729% | – | inhibition at 15 µM (Wild type SV40 viruses; Betapolyomavirus macacae, M-HeLa, 15 μM): 29.6%; inhibition at 30 µM (HIV-1 strain NL4-3): 18%
10 | C/C=C1/CCC2C3CCc4cc(OC)ccc4C3CC[C@]12C (stereo partly drawn) [Compound 10dc, cis-Δ^17(20)-19-Norpregna-1,3,5(10),17(20)-tetraen-3-yl methyl ether] | high negative or positive values | – | −139% | – | inhibition at 30 µM (HIV-1 strain NL4-3): 38%
11 | CC(C)CCC[C@@H](C)[C@H]1CC[C@H]2[C@@H]3CC=C4C[C@@H](O)CC[C@]4(C)[C@H]3CC[C@]12C [cholesterol, reference compound] | do not show significant disrafting activity | – | – | – | % disrafting in the DLRA (Raft liposomes): 0%
12 | C[C@]12CC[C@H](O)C[C@@H]1CC[C@@H]1[C@@H]2CC[C@]2(C)C(=O)CC[C@@H]12 [epiandrosterone, reference compound] | do not show significant disrafting activity | – | – | – | % disrafting in the DLRA (Raft liposomes): 0%
13 | cis-Δ^17(20)-Dodecylidene-3alpha-aminoandrostan [Compound 10al] | high negative or positive values | – | −216% | – | inhibition of PR8 virus replication (PR8 virus; 12.5 μM, MDCK cells): 54%; inhibition of release of β-hexosaminidase [2]: 61%

Reference: patent US20080255076A1, “Steroid-Derived Pharmaceutical Compositions” (JadoLabs GmbH, priority 2004, published 2008)
